Target: T1, human PTH1 receptor (Homo sapiens, UniProt Q03431)
T1 sequence (Q03431 27-593): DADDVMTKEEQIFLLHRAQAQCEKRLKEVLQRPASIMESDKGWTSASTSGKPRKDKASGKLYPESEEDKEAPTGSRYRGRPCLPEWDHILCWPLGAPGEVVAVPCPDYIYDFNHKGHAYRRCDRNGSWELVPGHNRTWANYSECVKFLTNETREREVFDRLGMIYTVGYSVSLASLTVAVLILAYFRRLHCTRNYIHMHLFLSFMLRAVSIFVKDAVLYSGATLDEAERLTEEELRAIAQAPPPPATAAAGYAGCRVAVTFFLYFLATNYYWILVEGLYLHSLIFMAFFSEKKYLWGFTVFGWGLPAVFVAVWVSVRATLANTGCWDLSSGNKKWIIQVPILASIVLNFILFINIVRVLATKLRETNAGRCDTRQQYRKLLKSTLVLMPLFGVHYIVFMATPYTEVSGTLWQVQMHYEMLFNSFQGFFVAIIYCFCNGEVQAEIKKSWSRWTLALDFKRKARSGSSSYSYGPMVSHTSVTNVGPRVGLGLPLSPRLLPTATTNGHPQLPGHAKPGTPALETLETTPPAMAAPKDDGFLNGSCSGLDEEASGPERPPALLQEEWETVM
Assay: In vitro cAMP signal activity in HKRK-B7 cells (LLC-PK1 cells overexpressing the human PTH1 receptor)
Format: cell-based
Settings: HKRK-B7 cells; compound at 1×10^−3 M; cAMP produced as percentage of that produced by hPTH(1-34) at 100 nM

Row | Compound | cAMP production activity (%)
1 | O=C1NC(C2CCCCC2)=NC12CCN(S(=O)(=O)CCc1ccc3[nH]ccc3c1)CC2 [Compound 269, 2-cyclohexyl-8-[2-(1H-indol-5-yl)-ethanesulfonyl]-1,3,8-triaza-spiro[4.5]dec-1-en-4-one] | 43
2 | CN(C)C(=O)CNc1ccc(CCS(=O)(=O)N2CCC3(CC2)N=C(C2CCCCC2)NC3=O)c(C(F)(F)F)c1 [Compound 270, 2-{4-[2-(2-cyclohexyl-4-oxo-1,3,8-triaza-spiro[4.5]dec-1-ene-8-sulfonyl)-ethyl]-3-trifluoromethyl-phenylamino}-N,N-dimethyl-acetamide] | 55
3 | O=C(Nc1ccc(CCS(=O)(=O)N2CCC3(CC2)N=C(C2CCCCC2)NC3=O)c(C(F)(F)F)c1)C1CC1 [Compound 271, cyclopropanecarboxylic acid {4-[2-(2-cyclohexyl-4-oxo-1,3,8-triaza-spiro[4.5]dec-1-ene-8-sulfonyl)-ethyl]-3-trifluoromethyl-phenyl}-amide] | 57
4 | CC(C)(C)OC(=O)NCc1ccc(CCS(=O)(=O)N2CCC3(CC2)N=C(C2CCCCC2)NC3=O)c(C(F)(F)F)c1 [Compound 272, {4-[2-(2-cyclohexyl-4-oxo-1,3,8-triaza-spiro[4.5]dec-1-ene-8-sulfonyl)-ethyl]-3-trifluoromethyl-benzyl}-carbamic acid tert-butyl ester] | 67
5 | CN(C)C(=O)Nc1ccc(CCS(=O)(=O)N2CCC3(CC2)N=C(C2CCCCC2)NC3=O)c(C(F)(F)F)c1 [Compound 273, 3-{4-[2-(2-cyclohexyl-4-oxo-1,3,8-triaza-spiro[4.5]dec-1-ene-8-sulfonyl)-ethyl]-3-trifluoromethyl-phenyl}-1,1-dimethyl-urea] | 55
6 | COC(=O)Nc1ccc(C)c(CCS(=O)(=O)N2CCC3(CC2)N=C(C2CCCCC2)NC3=O)c1 [Compound 274, {3-[2-(2-cyclohexyl-4-oxo-1,3,8-triaza-spiro[4.5]dec-1-ene-8-sulfonyl)-ethyl]-4-methyl-phenyl}-carbamic acid methyl ester] | 74
7 | Cc1ccc(NCCO)cc1CCS(=O)(=O)N1CCC2(CC1)N=C(C1CCCCC1)NC2=O [Compound 275, 2-cyclohexyl-8-{2-[5-(2-hydroxy-ethylamino)-2-methyl-phenyl]-ethanesulfonyl}-1,3,8-triaza-spiro[4.5]dec-1-en-4-one] | 72
8 | CC(=O)Nc1cccc(C)c1CCS(=O)(=O)N1CCC2(CC1)N=C(C1CCCCC1)NC2=O [Compound 276, N-{2-[2-(2-cyclohexyl-4-oxo-1,3,8-triaza-spiro[4.5]dec-1-ene-8-sulfonyl)-ethyl]-3-methyl-phenyl}-acetamide] | 63
9 | Cc1ccccc1CCS(=O)(=O)N1CCC2(CC1)N=C(C1CCCCC1)NC2=O [Compound 277, 2-cyclohexyl-8-(2-o-tolyl-ethanesulfonyl)-1,3,8-triaza-spiro[4.5]dec-1-en-4-one] | 38
10 | O=C(NCCO)Nc1ccc(CCS(=O)(=O)N2CCC3(CC2)N=C(C2CCCCC2)NC3=O)c(C(F)(F)F)c1 [Compound 278, 1-{4-[2-(2-cyclohexyl-4-oxo-1,3,8-triaza-spiro[4.5]dec-1-ene-8-sulfonyl)-ethyl]-3-trifluoromethyl-phenyl}-3-(2-hydroxy-ethyl)-urea] | 59
11 | Cc1cc(OC[C@H](O)CO)cc(C)c1CCS(=O)(=O)N1CCC2(CC1)N=C(C1CCCCC1)NC2=O [Compound 279, 2-cyclohexyl-8-{2-[4-((R)-2,3-dihydroxy-propoxy)-2,6-dimethyl-phenyl]-ethanesulfonyl}-1,3,8-triaza-spiro[4.5]dec-1-en-4-one] | 67
12 | O=C1NC(C2CCCCC2)=NC12CCN(S(=O)(=O)CCc1ccc(CCO)cc1)CC2 [Compound 280, 2-cyclohexyl-8-{2-[4-(2-hydroxy-ethyl)-phenyl]-ethanesulfonyl}-1,3,8-triaza-spiro[4.5]dec-1-en-4-one] | 57
13 | Cc1cc(NCC2CNC(=O)O2)ccc1CCS(=O)(=O)N1CCC2(CC1)N=C(C1CCCCC1)NC2=O (centres unmarked) [Compound 281, 2-cyclohexyl-8-(2-{2-methyl-4-[(2-oxo-oxazolidin-5-ylmethyl)-amino]-phenyl}-ethanesulfonyl)-1,3,8-triaza-spiro[4.5]dec-1-en-4-one] | 92
14 | CN(C)CCNC(=O)Cc1ccc(CCS(=O)(=O)N2CCC3(CC2)N=C(C2CCCCC2)NC3=O)cc1 [Compound 282, 2-{4-[2-(2-cyclohexyl-4-oxo-1,3,8-triaza-spiro[4.5]dec-1-ene-8-sulfonyl)-ethyl]-phenyl}-N-(2-dimethylamino-ethyl)-acetamide] | 29
15 | Cc1cc(C(=O)N2CC(F)(F)C(F)(F)C2)ccc1CCS(=O)(=O)N1CCC2(CC1)N=C(C1CCCCC1)NC2=O [Compound 283, 2-cyclohexyl-8-{2-[2-methyl-4-(3,3,4,4-tetrafluoro-pyrrolidine-1-carbonyl)-phenyl]-ethanesulfonyl}-1,3,8-triaza-spiro[4.5]dec-1-en-4-one] | 63
16 | Cc1cc(OCCC(O)CO)ccc1CCS(=O)(=O)N1CCC2(CC1)N=C(c1cccc(C(F)(F)F)c1)NC2=O (centres unmarked) [Compound 284, 8-{2-[4-(3,4-dihydroxy-butoxy)-2-methyl-phenyl]-ethanesulfonyl}-2-(3-trifluoromethyl-phenyl)-1,3,8-triaza-spiro[4.5]dec-1-en-4-one] | 82
17 | Cc1cc(C(=O)N2CCC(O)CC2)ccc1CCS(=O)(=O)N1CCC2(CC1)N=C(c1cccc(OC(F)(F)F)c1)NC2=O [Compound 285, 8-{2-[4-(4-hydroxy-piperidine-1-carbonyl)-2-methyl-phenyl]-ethanesulfonyl}-2-(3-trifluoromethoxy-phenyl)-1,3,8-triaza-spiro[4.5]dec-1-en-4-one] | 65

The next lines start with the values.

Row | cAMP production activity (%) | Compound
18 | 54 | O=C1NC(c2cccc(C(F)(F)F)c2)=NC12CCN(S(=O)(=O)CCc1ccc(NCCO)cc1C(F)(F)F)CC2 [Compound 286, 8-{2-[4-(2-hydroxy-ethylamino)-2-trifluoromethyl-phenyl]-ethanesulfonyl}-2-(3-trifluoromethyl-phenyl)-1,3,8-triaza-spiro[4.5]dec-1-en-4-one]
19 | 58 | Cc1cc(S(=O)(=O)NCCCCO)ccc1CCS(=O)(=O)N1CCC2(CC1)N=C(c1cccc(OC(F)(F)F)c1)NC2=O [Compound 287, N-(4-hydroxy-butyl)-3-methyl-4-{2-[4-oxo-2-(3-trifluoromethoxy-phenyl)-1,3,8-triaza-spiro[4.5]dec-1-ene-8-sulfonyl]-ethyl}-benzenesulfonamide]
20 | 82 | Cc1cc(C(=O)N2CCCC2)ccc1CCS(=O)(=O)N1CCC2(CC1)N=C(c1cccc(C(F)(F)F)c1)NC2=O [Compound 288, 8-{2-[2-methyl-4-(pyrrolidine-1-carbonyl)-phenyl]-ethanesulfonyl}-2-(3-trifluoromethyl-phenyl)-1,3,8-triaza-spiro[4.5]dec-1-en-4-one]
21 | 99 | Cc1cc(C(=O)N2CCN(C)CC2)ccc1CCS(=O)(=O)N1CCC2(CC1)N=C(c1cccc(C(F)(F)F)c1)NC2=O [Compound 289, 8-{2-[2-methyl-4-(4-methyl-piperazine-1-carbonyl)-phenyl]-ethanesulfonyl}-2-(3-trifluoromethyl-phenyl)-1,3,8-triaza-spiro[4.5]dec-1-en-4-one]
22 | 76 | Cc1cc(S(=O)(=O)NCC(F)(F)F)ccc1CCS(=O)(=O)N1CCC2(CC1)N=C(c1cccc(C(F)(F)F)c1)NC2=O [Compound 290, 3-methyl-4-{2-[4-oxo-2-(3-trifluoromethyl-phenyl)-1,3,8-triaza-spiro[4.5]dec-1-ene-8-sulfonyl]-ethyl}-N-(2,2,2-trifluoro-ethyl)-benzenesulfonamide]
23 | 66 | Cc1cc(S(N)(=O)=O)ccc1CCS(=O)(=O)N1CCC2(CC1)N=C(c1cccc(C(F)(F)F)c1)NC2=O [Compound 291, 3-methyl-4-{2-[4-oxo-2-(3-trifluoromethyl-phenyl)-1,3,8-triaza-spiro[4.5]dec-1-ene-8-sulfonyl]-ethyl}-benzenesulfonamide]
24 | 58 | Cc1cc(S(=O)(=O)NCCN2CCOCC2)ccc1CCS(=O)(=O)N1CCC2(CC1)N=C(c1cccc(C(F)(F)F)c1)NC2=O [Compound 292, 3-methyl-N-(2-morpholin-4-yl-ethyl)-4-{2-[4-oxo-2-(3-trifluoromethyl-phenyl)-1,3,8-triaza-spiro[4.5]dec-1-ene-8-sulfonyl]-ethyl}-benzenesulfonamide]
25 | 38 | CN(C)C(=O)c1ccc(CCS(=O)(=O)N2CCC3(CC2)N=C(c2cccc(OC(F)(F)F)c2)NC3=O)c(F)c1 [Compound 293, 3-fluoro-N,N-dimethyl-4-{2-[4-oxo-2-(3-trifluoromethoxy-phenyl)-1,3,8-triaza-spiro[4.5]dec-1-ene-8-sulfonyl]-ethyl}-benzamide]
26 | 106 | Cc1cc(S(=O)(=O)Nc2cccnc2)ccc1CCS(=O)(=O)N1CCC2(CC1)N=C(c1cccc(C(F)(F)F)c1)NC2=O [Compound 294, 3-methyl-4-{2-[4-oxo-2-(3-trifluoromethyl-phenyl)-1,3,8-triaza-spiro[4.5]dec-1-ene-8-sulfonyl]-ethyl}-N-pyridin-3-yl-benzenesulfonamide]

Reference: patent publication US9169254B2, “Spiroimidazolone derivative” (Chugai Seiyaku Kabushiki Kaisha, priority 2009, dated 2015)
